What was measured:
[1] = according to Schalcter (2017), cited from earlier work
[2] = system: CoV-OC43; assay: in vitro inhibition of infection of cells with test virus CoV-OC43; assay type: cell-based; settings: for infection of cells by CoV-OC43 at different concentrations: different dilutions of the sialic acid, two replicates, FIGS. 1 and 2
Description: FIG. 1 provides data from one replicate showing infection of cells by CoV-OC43 at different concentrations of either Neu5Ac or Neu5Gc.
FIG. 2 provides data from another replicate showing infection of cells by CoV-OC43 at different concentrations of either Neu5Ac or Neu5Gc.
FIG. 3 provides data from an experiment where inhibition of infection by Neu5Ac is compared to a control sugar, galactose.
The effectiveness of sialic acid (Neu5Ac or Neu5Gc) in preventing corona virus infection was evaluated in vitro in a model system. Different dilutions of the sialic acids were tested for their ability to inhibit infection of cells with the test virus CoV-OC43. FIGS. 1 and 2 provide data from two replicates showing infection of cells by CoV-OC43 at different concentrations of either Neu5Ac or Neu5Gc (Neu5Ac left hand bars, Neu5Gc right hand bars).

SMILES | excretion via urine [1] | absorption after ingestion ([1]; after ingestion) | inhibition of infection compared to a control sugar, galactose ([2]; CoV-OC43, FIG. 3) | infection of cells by CoV-OC43 at different concentrations [2]
CC(=O)N[C@H]1[C@H]([C@H](O)[C@H](O)CO)OC(O)(C(=O)O)C[C@@H]1O (some centres unmarked) [Neu5Ac, N-acetyl neuraminic acid] | quickly excreted via urine | rapidly absorbed | prevents infection as compared to the control | inhibited in a dose-dependent manner
O=C(CO)N[C@H]1[C@H]([C@H](O)[C@H](O)CO)OC(O)(C(=O)O)C[C@@H]1O (some centres unmarked) [Neu5Gc, N-glycolylneuraminic acid] |  |  |  | inhibited in a dose-dependent manner

Source: patent US12390481B2, “Sialic acid compositions for the use of inhibiting and treating coronavirus infection” (LifeScience AS, priority 2020, dated 2025)
